These results are taken from patent US10906929B2, “Phosphoramidate nucleoside derivatives as anticancer agents” (NuCana plc, priority 2016, dated 2021).

Test [1] concerns KG1a cell line. Kind of test: Annexin V/propidium iodide apoptosis assay. Type of test: cell-based. Particulars: 72 h, dose required to kill 50% of the cells. On the procedure: (§1) Cells of the KG1a cell line were maintained in RPMI medium (Invitrogen, Paisley, UK) supplemented with 100 units/ml penicillin, 100 μg/ml streptomycin and 20% foetal calf serum. Cells were subsequently aliquoted (10^5 cells/100 μl) into 96-well plates and were incubated at 37° C. in a humidified 5% carbon dioxide atmosphere for 72 h in the presence of nucleoside analogues and their respective phosphoramidates at concentrations that were experimentally determined for each series of compounds. In addition, control cultures were carried out to which no drug was added. Cells were subsequently harvested by centrifugation and were analyzed by flow cytometry using the Annexin V assay.
Measurement of in vitro apoptosis. Cultured cells were harvested by centrifugation and then resuspended in 195 μl of calcium-rich buffer. Subsequently, 5 μl of Annexin V (Caltag Medsystems, Botolph Claydon, UK) was added to the cell suspension and cells were incubated in the dark for 10 mins prior to washing. Cells were finally resuspended in 190 μl of calcium-rich buffer together with 10 μl of propidium iodide. Apoptosis was assessed by dual-colour immunofluorescent flow cytometry as described previously. Subsequently LD50 values (the dose required to kill 50% of the cells in a culture) were calculated for each nucleoside analogue and phosphoramidate.
The data obtained in these experiments were evaluated using one way ANOVA. All data was confirmed as Gaussian or a Gaussian approximation using the omnibus K2 test. LD50 values were calculated from the non-linear regression and line of best-fit analysis of the sigmoidal dose-response curves. All statistical analyses were performed using Graphpad Prism 6.0 software (Graphpad Software Inc., San Diego, Calif.).

Test [2] deals with MCF7. Kind of test: Cytostatic activity, cell counting (Coulter counter). Type of test: cell-based. The conditions noted are these: Homo sapiens, MCF7, 72 h, read-out: IC50 MCF7. The text has this: (§2) Tumor cell cultures were infected with M. hyorhinis (ATCC 17981) and after two or more passages (to avoid bias by the initial inoculum) successful infection was confirmed using the MycoAlert™ mycoplasma detection kit (Lonza, Basel, Switzerland). Although this assay is only semi-quantitative, a maximal infection was observed 3 to 4 days after subcultivation of the mycoplasma-exposed cells. Chronically infected tumor cell lines are further referred to as Cell line.Hyor. All tumor cell cultures were maintained in Dulbecco's modified Eagle's medium (DMEM) (Invitrogen) supplemented with 10% fetal bovine serum (Biochrom AG, Berlin, Germany), 10 mm HEPES, and 1 mm sodium pyruvate (Invitrogen). Cells were grown at 37° C. in a humidified incubator with a gas phase containing 5% CO2.
(§3) The cytostatic activity of the test compounds was examined in mycoplasma-infected and uninfected cancer cell lines. When assaying the effect of M. hyorhinis infection, monolayer MCF7 and MCF7.Hyor cells were seeded in 48-well microtiter plates (Nunc™, Roskilde, Denmark) at 10,000 cells/well (Corning Inc., Corning, N.Y.) […]. After 24 h, the cells were exposed to different concentrations of test compound and allowed to proliferate for 72 h (to ensure sufficient cell proliferation and mycoplasma growth) after which the cells were trypsinized and counted using a Coulter counter (Analis, Suarlée, Belgium). Suspension cells (L1210, L1210.Hyor, FM3A, and FM3A.Hyor) were seeded in 96-well microtiter plates (Nunc) at 60,000 cells/well in the presence of different concentrations of test compound. The cells were allowed to proliferate for 48 h and then counted using a Coulter counter. The 50% inhibitory concentration (IC50) was defined as the compound concentration required to reduce cell proliferation by 50%.

The test system of test [3] is MCF7 cells infected with Mycoplasma hyorhnis (HYOR). The experiment in a line: Cytostatic activity in mycoplasma-infected cells. The conditions noted are these: for IC50: Homo sapiens, MCF7, 72 h, read-out: IC50 MCF7/HYOR; for Loss of potency: MCF7/HYOR versus MCF7. Type of test: cell-based, human.
Text: as §2, §3

In test [4] the test system is U937. The experiment in a line: In vitro cytotoxicity, MTS assay. The test is classed as cell-based. The conditions noted are these: Homo sapiens, U-937, 72 h, read-out: Inhibitory concentration (IC50) U937. The method, then:
(§4) Cladribine phosphoramidate derivatives were evaluated against six leukaemic cell lines (KG1, U937, K562, NB4R2, NB4 and HL-60) in vitro. Inhibitory concentration (IC50) at which 50% of the cells were no longer viable (calculated using MTS assay) was determined. Cells were treated with Cladribine and its 3′-phosphoramidate derivatives at concentrations between 100 μM and 0.02 μM by serial dilutions and incubated for 72 h at 37° C., 5% CO2 in a final volume of 90 μL. Twenty microliters of MTS reagent (Promega UK Ltd, Southampton, Hants) was added to the tumour cell cultures and reaction incubated for a further 4 h at 37° C., 5% CO2. The absorbance of the reaction after this time was read by spectrophotometry at 490 nm and the percentage of viable cells calculated relative to untreated control cells in the same assay.
A general note: Tetrazolium dyes change colour on reduction, which living cells bring about.

Test [5] has as its system NB4R2. Kind of test: In vitro cytotoxicity, MTS assay. The test is classed as cell-based. The conditions noted are these: 72 h, read-out: Inhibitory concentration (IC50) NB4R2. On the procedure:
as §4

Test [6] has as its system NB4. The experiment in a line: In vitro cytotoxicity, MTS assay. Type of test: cell-based. Particulars: Homo sapiens, NB-4, 72 h, read-out: Inhibitory concentration (IC50) NB4. The method, then:
as §4

In test [7] the test system is KG1. The experiment in a line: In vitro cytotoxicity, MTS assay. Type of test: cell-based. Particulars: Homo sapiens, KG-1, 72 h, read-out: Inhibitory concentration (IC50) KG1. On the procedure:
as §4

The test system of test [8] is K562. The experiment in a line: In vitro cytotoxicity, MTS assay. The test is classed as cell-based. Particulars: Homo sapiens, 72 h, read-out: Inhibitory concentration (IC50) K562. On the procedure:
as §4

The test system of test [9] is HL-60. Kind of test: In vitro cytotoxicity, MTS assay. The test is classed as cell-based. Particulars: Homo sapiens, 72 h, read-out: Inhibitory concentration (IC50) HL-60. On the procedure:
as §4

Test [10] has as its system leukaemic stem cell compartment (Lin-/CD34+/CD38-/CD123+) within the KG1a cell line. Kind of test: Immunophenotypic identification of the leukaemic stem cell compartment. The test is classed as cell-based. Particulars: for Stem cell %: 72 h, LSC phenotype as percentage of all viable cells left, Control: 4%. The method, then:
A further comparative analysis of the toxicity of compounds in the KG1a cell line over an extended dose range was carried out, and the relative effect assessed of the compounds on the leukaemic stem cell compartment within the KG1a cell line, across the entire dose range. Thus, experimental tests were performed on certain compounds of the present invention to assess their ability to target cancer stem cells in a leukaemic cell line. The acute myeloid leukaemia (AML) cell line, KG1a, was employed to assess the relative effect of compounds on the stem cell compartment. The KG1a cell line was selected because it manifests a minor stem cell-like compartment with a distinct immunophenotype (Lin^−/CD34^+/CD38^−/CD123^+).
as §1
KG1a cells were cultured for 72 h in the presence of a wide range of concentrations of each compound assayed. Cells were then harvested and labelled with a cocktail of anti-lineage antibodies (PE-cy7), anti-CD34 (FITC), anti-CD38 (PE) and anti-CD123 (PERCP cy5). The sub-population expressing a leukaemic stem cell (LSC) phenotype were subsequently identified and were expressed as a percentage of all viable cells left in the culture. […]

Test [11] relates to L1210 cells infected with Mycoplasma hyorhinis (HYOR). The experiment in a line: Cytostatic activity in mycoplasma-infected cells. The test is classed as cell-based, mouse.
Text: as §2, §3

Test [12] has as its system L1210. The experiment in a line: Cytostatic activity, cell counting (Coulter counter). Type of test: cell-based. The conditions noted are these: Mus musculus, L1210, 48 h, read-out: IC50 L1210.
Text: as §2, §3

Test [13] relates to HEL92.1.7 Erythroleukaemia. Kind of test: In vitro viability assay, CellTiterGlo. The test is classed as cell-based. The method, then:
(§5) In vitro viability assay was performed to assess the effects of compounds on cell viability in selected cell lines over 72 h using the CellTiterGlo (CTG, Promega-G7573) assay. The tests were performed in duplicates with treatment of compounds at 9 points, 3.16 folds titration in 96 well plates over ˜72 h. The compound starting concentrations were […]. Cell viability assay using CellTiterGlo in 96-well plate were performed. Compounds were dissolved to 40 mM with thawed 100% DMSO. Compounds were serially diluted at 3.16-fold in thawed DMSO, and warmed to 37° C. before being dissolved in media (2 μl+200 μl). After compounds were dissolved in media, media containing compounds were warmed to 37° C. in incubator and then compounds in media were added to cell plates (50 μl+50 μl) in duplicates. The compounds' final concentrations were from 198 μM to 19.9 nM. Solubility of all compounds was checked and recorded again, then the plates were transferred to CO2 tissue culture incubator immediately and incubated for 3 days. DMSO final concentration is 0.5%.
(In general: ATP-based viability assays read luminescence as a measure of living cells.)

Test [14] deals with Z-138 Mantle cell lymphoma. The experiment in a line: In vitro viability assay, CellTiterGlo. Type of test: cell-based. On the procedure:
as §5

The test system of test [15] is KG-1 Acute myelogenous leukaemia. Kind of test: In vitro viability assay, CellTiterGlo. The test is classed as cell-based. On the procedure: as §5
The test system of test [16] is RL Non-Hodgkin's lymphoma. The experiment in a line: In vitro viability assay, CellTiterGlo. Type of test: cell-based. Particulars: 72 h. The method, then:
as §5

Test [17] deals with HL-60 Promyelocytic leukaemia. The experiment in a line: In vitro viability assay, CellTiterGlo. The test is classed as cell-based. The method, then:
as §5

Test [18] concerns MCF-7 Mammary epithelial adenocarcinoma. Kind of test: In vitro viability assay, CellTiterGlo. Type of test: cell-based, human. On the procedure:
as §5

A value given as a limit tells only on which side of the number the result lay.

As for `C[C@H](NP(=O)(Oc1ccccc1)OC1C[C@H](n2cnc3c(N)nc(Cl)nc32)O[C@@H]1CO)C(=O)OCc1ccccc1` (some centres unmarked) [Compound 19], in test [1], the LD50 is given as 0.83 μm. Moreover, the IC50 in test [2] came to 5.2 µM; in [3], 26 µM; in test [4] it was 0.03 µM; in [5] it was 0.11 µM; in test [6], 0.24 µM; in test [7], 0.38 µM. Further, the IC50 is above 10 µM in test [8] and 0.1 µM in test [9]. Further, in [3], the Loss of potency is recorded as 5-fold. Also, the stem cell selectivity entry in [10] is given as “exhibited stem cell selectivity”. The compound also showed a Stem cell % in test [10] of 3.1%.
Turning to `C[C@H](NP(=O)(Oc1cccc2ccccc12)OC1C[C@H](n2cnc3c(N)nc(Cl)nc32)O[C@@H]1CO)C(=O)OCC(C)(C)C` (stereo partly drawn) [Compound 6, 2-Chloro-2′-deoxyadenosine-3′-[1-naphthyl-(2,2-dimethylpropoxy-L-alaninyl)]phosphate], the Loss of potency in test [11] (L1210/HYOR versus L1210) is on record as 4-fold. Also, the IC50 in test [11] (Mus musculus, L1210, 48 h, read-out: IC50 L1210/HYOR) came out at 4 µM; in test [12], 1 µM; in [6] it was 1 µM; in test [9], 0.3 µM. The “Top Inhibition (%)” value was determined as 98.6% in [13] (HEL92.1.7, CellTiterGlo, 72 h); 101% in test [14] (Z-138, CellTiterGlo, 72 h); 98.6% in test [15] (KG-1, CellTiterGlo, 72 h); 98.6% in [16] (CellTiterGlo); 96% in test [17] (HL-60, CellTiterGlo, 72 h); 102% in test [18] (MCF-7, CellTiterGlo, 72 h). In addition, the EC50 (commonly the midpoint of the concentration-response curve) in test [13] (Homo sapiens, HEL 92.1.7, 72 h, read-out: EC50 (μM) Ab) was 0.07 µM; in test [14] (Homo sapiens, Z-138, 72 h, read-out: EC50 (μM) Ab) it was 1.5 µM; in test [15] (Homo sapiens, KG-1, 72 h, read-out: EC50 (μM) Ab), 1.2 µM; in test [16] (Homo sapiens, read-out: EC50 (μM) Ab), 0.29 µM; in test [17] (Homo sapiens, HL-60, 72 h, read-out: EC50 (μM) Ab), 0.23 µM; in [18] (Homo sapiens, MCF7, 72 h, read-out: EC50 (μM) Ab) it was 6.8 µM.
`C[C@H](NP(=O)(Oc1cccc2ccccc12)OC1C[C@H](n2cnc3c(N)nc(Cl)nc32)O[C@@H]1CO)C(=O)OCc1ccccc1` (some centres unmarked) [Compound 18] displayed an LD50 in test [1] of 0.27 μm. The IC50 in test [4] came out at 0.01 µM; in test [5], 1.29 µM; in test [6] it was 0.07 µM; in test [7], 0.31 µM; in test [8], 5.14 µM; in [9] it was 0.39 µM. Moreover, the stem cell selectivity entry in test [10] is “exhibited stem cell selectivity”. Further, the “targeting of LSCs when compared to cladribine” value in test [10] is “showed preferential targeting of LSCs”. Further, the Stem cell % in test [10] amounted to 4%.
In [1], `C[C@H](NP(=O)(OC[C@H]1O[C@@H](n2cnc3c(N)nc(Cl)nc32)CC1O)Oc1ccccc1)C(=O)OCc1ccccc1` (some centres unmarked) [Y, reference compound] displayed an LD50 of 1.7 μm. Also, the IC50 in [2] amounted to 2.1 µM; in test [3] it was 33 µM; in test [4], 0.08 µM; in test [5], 0.63 µM; in test [6] it was 0.23 µM; in [7] it was 0.67 µM. For the same compound, the IC50 in [8] was found to be 8.05 µM; in test [9], 1.75 µM. The Loss of potency in test [3] is given as 16-fold. In addition, the Stem cell % in [10] worked out at 2%.
